Where two headings read alike, the source gives them in different places.
Key:
hMOR = hMOR (Homo sapiens, UniProt P35372); assay: Receptor binding with [3H]diprenorphine at hMOR
hKOR = hKOR (Homo sapiens, UniProt P41145); assay: Receptor binding with [3H]diprenorphine at hKOR
humanDOR = humanDOR (Homo sapiens, UniProt P41143); assay: Receptor binding with [3H]diprenorphine at human DOR
[1] = PZM analogs, (n) = number of independent experiments, read-out: binding affinity Ki hMOR
[2] = PZM analogs, (n) = number of independent experiments, read-out: binding affinity Ki hKOR
[3] = PZM analogs, (n) = number of independent experiments, read-out: binding affinity Ki hDOR
[4] = ± SD (two experiments) or SEM, (n) experiments, read-out: hKOR [3H]dyprenorphine Ki
[5] = ± SD (two experiments) or SEM, (n) experiments, read-out: humanDOR [3H]dyprenorphine Ki

Sequence of humanDOR (P41143 whole entry): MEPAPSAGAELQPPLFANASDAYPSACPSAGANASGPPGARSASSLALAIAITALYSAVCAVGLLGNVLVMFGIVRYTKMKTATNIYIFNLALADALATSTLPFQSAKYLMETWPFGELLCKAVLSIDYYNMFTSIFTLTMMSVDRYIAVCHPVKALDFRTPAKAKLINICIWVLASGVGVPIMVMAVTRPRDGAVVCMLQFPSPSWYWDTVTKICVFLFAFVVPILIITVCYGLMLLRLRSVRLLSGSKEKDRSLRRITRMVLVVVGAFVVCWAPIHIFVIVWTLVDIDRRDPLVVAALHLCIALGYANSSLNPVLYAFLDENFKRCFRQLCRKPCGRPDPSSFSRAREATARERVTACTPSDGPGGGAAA
Sequence of hMOR (P35372 whole entry): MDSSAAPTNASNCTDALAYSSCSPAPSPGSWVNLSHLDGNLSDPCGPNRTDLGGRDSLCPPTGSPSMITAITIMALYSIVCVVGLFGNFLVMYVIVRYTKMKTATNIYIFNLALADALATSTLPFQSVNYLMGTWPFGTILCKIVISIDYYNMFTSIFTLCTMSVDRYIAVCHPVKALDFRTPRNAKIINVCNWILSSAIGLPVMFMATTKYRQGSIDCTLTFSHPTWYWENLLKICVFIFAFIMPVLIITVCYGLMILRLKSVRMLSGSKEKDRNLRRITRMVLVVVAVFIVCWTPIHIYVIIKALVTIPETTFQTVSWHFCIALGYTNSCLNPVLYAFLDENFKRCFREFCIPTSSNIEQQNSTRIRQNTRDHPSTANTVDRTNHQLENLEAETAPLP
Sequence of hKOR (P41145 whole entry): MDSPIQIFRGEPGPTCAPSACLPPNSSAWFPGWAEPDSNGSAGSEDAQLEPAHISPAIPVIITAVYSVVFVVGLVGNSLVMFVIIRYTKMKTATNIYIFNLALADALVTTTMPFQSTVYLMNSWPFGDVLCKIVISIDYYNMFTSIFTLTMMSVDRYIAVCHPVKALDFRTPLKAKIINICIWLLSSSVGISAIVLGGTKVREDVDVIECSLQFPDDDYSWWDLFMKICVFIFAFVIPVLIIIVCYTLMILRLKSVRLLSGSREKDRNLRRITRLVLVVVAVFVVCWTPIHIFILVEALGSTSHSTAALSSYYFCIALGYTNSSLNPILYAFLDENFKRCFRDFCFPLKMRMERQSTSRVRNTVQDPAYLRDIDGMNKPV

| SMILES | Ki (hMOR; [1]) [nM] | Ki (hKOR; [2]) [nM] | Ki (humanDOR; [3]) [nM] | further results |
| --- | --- | --- | --- | --- |
| CN(CC1CC1)[C@H](CNC(=O)NCCc1ccccc1)Cc1ccc(O)cc1 [drawing 507] | 760 | – | – | – |
| C=CCN(C[C@H](Cc1ccccc1)N(C)C)C(=O)N[C@H](C)Cc1ccsc1 | 4100 | 3100 | ~15000 | – |
| CC(Cc1ccsc1)NC(=O)NCC(Cc1ccccc1)N(C)C (single isomer, unassigned) [BD 127LR] | – | – | – | Ki (hKOR; [4]): 1300 nM; Ki (humanDOR; [5]): 1800 nM |
| C[C@@H](Cc1ccsc1)NC(=O)NC[C@H](Cc1ccc(O)cc1)N(C)C [drawing 512] | – | 18 | 1000 | – |
| C[C@@H](Cc1ccsc1)NC(=O)NC[C@H](Cc1ccccc1)N(C)C [drawing 492] | – | 1000 | 2800 | – |
| CN(CCc1ccccc1)C(=O)NC[C@H](Cc1ccc(O)cc1)N(C)C [drawing 504] | 320 | 160 | 1200 | – |
| C[C@H](Cc1ccsc1)NC(=O)NC[C@@H](Cc1ccc(O)cc1)N(C)C | – | 3100 | 4100 | – |
| CN(C)[C@H](CNC(=O)NCCc1ccccc1)Cc1ccc(O)cc1 [drawing 514] | 47 | 45 | 250 | – |
| C[C@@H](Cc1ccsc1)NC(=O)NC[C@H](Cc1ccccc1)N(C)C [BD 127LS] | – | – | – | Ki (hKOR; [4]): 1000 nM; Ki (humanDOR; [5]): 2800 nM |
| CN(C)[C@@H](CNC(=O)NCCc1ccsc1)Cc1ccccc1 | 4200 | 8100 | 25000 | – |
| CN(C)C(CNC(=O)NCCc1ccc(F)cc1)Cc1ccc(O)cc1 (centres unmarked) | 27 | 190 | 250 | – |
| CN(C)[C@H](CNC(=O)NCCN1C(=O)C2C3C=CC(O3)C2C1=O)Cc1ccc(O)cc1 (some centres unmarked) | – | – | – | Ki (hKOR): 8200 nM; Ki (humanDOR): 36000 nM; Ki (hMOR): 2300 nM |
| CN(C)[C@@H](CNC(=O)NC(C)(C)Cc1ccccc1)Cc1ccccc1 | 640 | 1100 | 1000 | – |
| CN(C)[C@H](CNC(=O)NC(C)(C)Cc1ccccc1)Cc1ccc(O)cc1 [drawing 530] | 46 | 91 | 920 | – |
| CC(Cc1csc2ccccc12)NC(=O)NC[C@H](Cc1ccc(O)cc1)N(C)C (mixture of isomers) | 14 | 19 | – | – |
| CN(C)[C@H](CNC(=O)NC(C)(C)Cc1ccsc1)Cc1ccc(O)cc1 [drawing 528] | 38 | 46 | 650 | – |
| C[C@@H](Cc1ccsc1)NC(=O)NC[C@@H](Cc1ccccc1)N(C)C | – | 3100 | 11000 | – |
| Cc1ccc([C@H](C)NC(=O)NC[C@H](Cc2ccc(O)cc2)N(C)C)cc1 [DD 51LS, 1-((S)-2-(dimethylamino)-3-(4-hydroxyphenyl)propyl)-3-((S)-1-(p-tolyl)ethyl)urea] | – | – | – | Ki (hKOR): 180 nM; Ki (humanDOR): 700 nM; Ki (hMOR): 150 nM |
| C[C@H](Cc1ccccc1)NC(=O)NC[C@H](Cc1ccc(O)cc1)N(C)C [DD 61L-A, 1-((S)-2-(dimethylamino)-3-(4-hydroxyphenyl)propyl)-3-((R)-1-phenylpropan-2-yl)urea] | – | – | – | Ki (hKOR; [4]): 67 nM; Ki (humanDOR; [5]): 91 nM; Ki (hMOR; ± SD (two experiments) or SEM, (n) experiments, read-out: hMOR [3H]dyprenorphine Ki): 81 nM |
| C[C@H](NC(=O)NC[C@H](Cc1ccc(O)cc1)N(C)C)c1ccccc1 (single isomer, unassigned) | 38 | 35 | 590 | – |
| CC(Cc1ccsc1)NC(=O)NCC(Cc1ccc(O)cc1)N(C)C (single isomer, unassigned) [BD 122DS] | – | – | – | Ki (hKOR; [4]): 2300 nM; Ki (humanDOR; [5]): 4800 nM |
| C[C@H](Cc1csc2ccccc12)NC(=O)NC[C@H](Cc1ccc(O)cc1)N(C)C | 43 | 67 | 83 | – |
| Cc1cc(O)cc(C)c1C[C@@H](CNC(=O)N[C@@H](C)Cc1ccsc1)N(C)C [drawing 538] | 12 | 6.5 | 85 | – |
| CN(C)[C@H](CNC(=O)NCCc1ccsc1)Cc1ccc(O)cc1 [drawing 500] | 43 | 150 | 330 | – |
| C=CCN(C[C@H](Cc1ccccc1)N(C)C)C(=O)N[C@@H](C)Cc1ccsc1 | 3200 | 1700 | ~15000 | – |
| COc1cccc(CCNC(=O)NCC(Cc2ccc(O)cc2)N(C)C)c1 (centres unmarked) | 110 | 1300 | 220 | – |
| O=C(NCCc1ccccc1)NC[C@H](Cc1ccc(O)cc1)N1CCCC1 | 660 | 770 | 1500 | – |
| CN[C@H](CNC(=O)NCCc1ccccc1)Cc1ccc(O)cc1 | 290 | – | – | – |
| CN(C)[C@H](CNC(=O)NCCc1ccsc1)Cc1ccccc1 | 350 | 3100 | 4500 | – |
| CC(Cc1ccsc1)NC(=O)NCC(Cc1ccc(O)cc1)N(C)C (single isomer, unassigned) [BD 122DR] | – | – | – | Ki (hKOR; [4]): 3100 nM; Ki (humanDOR; [5]): 4100 nM |

Reference: US20200109126A1 (priority 2017, published 2020)
